# “Also recorded” adds a separate entry of the source.
# Experiments:
# [1] = 28 days treatment in rodents; no reference given; cited from earlier work
# [2] = Phase I toxicity (NCI CTC v2.0) in patients; assay type: in vivo, human; conditions: for No. with grade 3 & 4 ALT increased / No. with grade 3 & 4 AST increased / No. with grade 3 & 4 Alk Phos increase / No. with grade 3 & 4 Anorexia / No. with grade 3 & 4 Bilirubin increase / No. with grade 3 & 4 CKMB increase / No. with grade 3 & 4 Fatigue / No. with grade 3 & 4 Hyperglycaemia / No. with grade 3 & 4 Hypokalemia / No. with grade 3 & 4 Hyponatraemia / No. with grade 3 & 4 Hypotension / No. with grade 3 & 4 Lymphopenia / No. with grade 3 & 4 Rash / No. with grade 3 & 4 adverse events / No. with grade 3 & 4 γ GT increase: first course; for Patients with derangements in liver biochemistry (γGT and ALP elevations): 7-day treatment period
# From the text: Dose-limiting toxicity (DLT) was defined as drug-related toxicity in the first cycle, including grade 4 neutropenia for 7 days or more, neutropenic fever, platelet count <25 × 10^9 l^−1 and/or non-haematological toxicity⩾grade 3. This definition excluded nausea and vomiting subsequently responding to antiemetic therapy and reversible grade 3 increases in liver transaminases. The maximum tolerated dose (MTD) was defined as a dose below which DLT occurred in more than 30% of the patients. Toxicities were evaluated according to the National Cancer Institute Common Toxicity Criteria, version 2.0.
# (§1) Before commencing treatment, a complete medical history was taken and physical examination was performed. The following pretreatment baseline examinations were performed within 4 weeks of starting treatment: full blood count, including white blood cell differential; reticulocyte count, haptoglobin, prothrombin time and Coombs test; serum biochemistry, including sodium, potassium, urea, creatinine, calcium, phosphorus, creatine kinase and isoenzymes, total protein, albumin, bilirubin (direct and total), alkaline phosphatase (ALP), alanine aminotransferase (ALT), aspartate aminotransferase (AST), γ-glutamyl transferase (γGT), lactate dehydrogenase and uric acid; urinalysis; pregnancy test, electrocardiogram and a chest X-ray. Weekly evaluations included history, physical examination, toxicity assessment according to the CTC criteria version 2.0 and full blood count and serum chemistries. Radiographic assessment of tumour was performed within 3 weeks before the patient starting treatment and after every two cycles, according to standard RECIST methodology. Patients were taken off protocol upon disease progression, unacceptable toxicity, investigator discretion, serious violation of protocol or at their own request, and were followed for 28 days after the last administration of the study drug.
# In addition, more intensive blood chemistry testing was performed on days 1, 3, 5 and 7.
# [3] = parameters: method as in earlier work; conditions: exposure over a 24-h period, preclinical data, ref De la Motte and Gianella-Borradori, 2004, Whittaker et al, Tang et al, 2005; cited from earlier work
# Cdk8 = conditions: background statement, no reference given; cited from earlier work
# Cdk6 = conditions: background statement, no reference given; cited from earlier work
# human tumour xenograft = system: human tumour xenograft; parameters: method as in Raynaud et al, 2005; conditions: 500 mg kg^−1 p.o. b.i.d., mouse; ref Raynaud et al, 2005; cited from earlier work
# malignant solid tumour = assay: Antitumour activity in patients (RECIST); assay type: in vivo, human; conditions: for Patients with stable disease after course 2: progressed by course 4
# Protocol: as §1
# [4] = parameters: method as in Raynaud et al, 2005; conditions: mouse, single dose 500 mg kg^−1 p.o.; ref Raynaud et al, 2005; cited from earlier work
# plasma proteins = system: plasma proteins; parameters: method as in Vita et al, 2005; conditions: primarily albumin; ref Vita et al, 2005; cited from earlier work
# renal perfusion = assay: MAG3 renogram functional renal imaging; assay type: in vivo, human; conditions: one of three patients, 800 mg b.i.d., day 3, reverted to normal by day 14
# Protocol: In an attempt to understand further the pathogenesis of these biochemical toxicities, three patients were studied more intensively. Urinary retinol-binding protein (RBP), a marker of renal tubular damage was measured in conjunction with functional renal imaging (MAG3 renograms) to estimate renal blood flow pretreatment on days 3 and 14. […] This was associated with bilateral increases in renal parenchymal retention on day 3 on MAG3 scans, which reverted to normal by day 14 (see Figure 1). […] There were no consistent changes in urinary RBP in any of these patients (Table 3).
# Cdk4 = conditions: background statement, no reference given; cited from earlier work
# [5] = system: Retinoblastoma phosphorylation and cyclin D1 levels in peripheral blood mononuclear cells; assay: Pharmacodynamics in peripheral blood mononuclear cells (western blot); assay type: in vivo, human; conditions: peripheral blood mononuclear cells of patients, first cycle
# Protocol: Whole blood was collected from patients at selected time points into lithium–heparin Vacutainer® tubes (Vacutainer, BD, Franklin Lakes, NJ, USA). Each tube was inverted several times to ensure thorough mixing and then mixed with sterile 0.9% saline at a ratio of 1:1. This was then layered over ficol (Lymphoprep® Nycomed, Oslo, Norway) and centrifuged at 1200 r.p.m. (400 g equivalent) at 18°C for 30 min. The resulting mononuclear cell layer was then removed and resuspended in 0.9% NaCl. Cell pellets were obtained by centrifugation (600 g) and flash frozen in liquid nitrogen. Mononuclear cells were then stored at −70°C in labelled cryovials until further analysis.
# Cell pellets were treated with lysis buffer (50 mM Tris–HCl, 150 mM NaCl, pH 7.5, 1% NP40, 2 mM PMSF, 10 μg ml^−1 aprotinin, 10 μg ml^−1 leupeptin, 1 mM activated sodium orthovanadate, 1 mM sodium fluoride and 10 mM β-glycerophosphate) for 30 min on ice. Samples (20–100 μg of protein) were heat-denatured in Laemmli sample buffer (10% glycerol, 5% β-mercaptoethanol, 2% sodium dodecyl sulphate (SDS), 62.5 mM Tris (pH 6.8), 0.05% bromphenol blue, final concentrations) and separated by SDS—polyacrylamide gel electrophoresis (PAGE) using pre-cast 10 or 15-well 20 or 10% Tris–glycine polyacrylamide gels (Invitrogen, Netherlands). […]
# [6] = same patient, 800 mg b.i.d., course 2
structure (smiles),measurement,setting,value
CC[C@H](CO)Nc1nc(NCc2ccccc2)c2ncn(C(C)C)c2n1 [Seliciclib],Preclinical toxicology findings,[1],"anaemia, leucocytosis, bone marrow hyperplasia, polydipsia, polyuria and gastric ulceration"
same,No. with grade 3 & 4 ALT increased,"[2]; 100 mg b.i.d, 3 subjects",0
same,No. with grade 3 & 4 AST increased,"[2]; 100 mg b.i.d, 3 subjects",0
same,No. with grade 3 & 4 Alk Phos increase,"[2]; 100 mg b.i.d, 3 subjects",0
same,No. with grade 3 & 4 Anorexia,"[2]; 100 mg b.i.d, 3 subjects",0
same,No. with grade 3 & 4 Bilirubin increase,"[2]; 100 mg b.i.d, 3 subjects",0
same,No. with grade 3 & 4 CKMB increase,"[2]; 100 mg b.i.d, 3 subjects",0
same,No. with grade 3 & 4 Fatigue,"[2]; 100 mg b.i.d, 3 subjects",0
same,No. with grade 3 & 4 Hyperglycaemia,"[2]; 100 mg b.i.d, 3 subjects",0
same,No. with grade 3 & 4 Hypokalemia,"[2]; 100 mg b.i.d, 3 subjects",0
same,No. with grade 3 & 4 Hyponatraemia,"[2]; 100 mg b.i.d, 3 subjects",0
same,No. with grade 3 & 4 Hypotension,"[2]; 100 mg b.i.d, 3 subjects",0
same,No. with grade 3 & 4 Lymphopenia,"[2]; 100 mg b.i.d, 3 subjects",0
same,No. with grade 3 & 4 Rash,"[2]; 100 mg b.i.d, 3 subjects",0
same,No. with grade 3 & 4 adverse events,"[2]; 100 mg b.i.d, 3 subjects",0
same,No. with grade 3 & 4 γ GT increase,"[2]; 100 mg b.i.d, 3 subjects",0
same,Toxicity at the 100 mg dose level,"[2]; 100 mg b.i.d., three patients",No significant toxicity
same,No. with grade 3 & 4 ALT increased,"[2]; 200 mg b.i.d, 6 subjects",1
same,No. with grade 3 & 4 AST increased,"[2]; 200 mg b.i.d, 6 subjects",1
same,No. with grade 3 & 4 Alk Phos increase,"[2]; 200 mg b.i.d, 6 subjects",1
same,No. with grade 3 & 4 Anorexia,"[2]; 200 mg b.i.d, 6 subjects",0
same,No. with grade 3 & 4 Bilirubin increase,"[2]; 200 mg b.i.d, 6 subjects",1
same,No. with grade 3 & 4 CKMB increase,"[2]; 200 mg b.i.d, 6 subjects",1
same,No. with grade 3 & 4 Fatigue,"[2]; 200 mg b.i.d, 6 subjects",0
same,No. with grade 3 & 4 Hyperglycaemia,"[2]; 200 mg b.i.d, 6 subjects",0
same,No. with grade 3 & 4 Hypokalemia,"[2]; 200 mg b.i.d, 6 subjects",0
same,No. with grade 3 & 4 Hyponatraemia,"[2]; 200 mg b.i.d, 6 subjects",0
same,No. with grade 3 & 4 Hypotension,"[2]; 200 mg b.i.d, 6 subjects",0
same,No. with grade 3 & 4 Lymphopenia,"[2]; 200 mg b.i.d, 6 subjects",0
same,No. with grade 3 & 4 Rash,"[2]; 200 mg b.i.d, 6 subjects",0
same,No. with grade 3 & 4 adverse events,"[2]; 200 mg b.i.d, 6 subjects",2
same,No. with grade 3 & 4 γ GT increase,"[2]; 200 mg b.i.d, 6 subjects",1
same,Patients with derangements in liver biochemistry (γGT and ALP elevations),[2]; 200 mg b.i.d.,4 out of 6
same,No. with grade 3 & 4 ALT increased,"[2]; 800 mg b.i.d, 12 subjects",0
same,No. with grade 3 & 4 AST increased,"[2]; 800 mg b.i.d, 12 subjects",0
same,No. with grade 3 & 4 Alk Phos increase,"[2]; 800 mg b.i.d, 12 subjects",0
same,No. with grade 3 & 4 Anorexia,"[2]; 800 mg b.i.d, 12 subjects",1
same,No. with grade 3 & 4 Bilirubin increase,"[2]; 800 mg b.i.d, 12 subjects",0
same,No. with grade 3 & 4 CKMB increase,"[2]; 800 mg b.i.d, 12 subjects",0
same,No. with grade 3 & 4 Fatigue,"[2]; 800 mg b.i.d, 12 subjects",1
same,No. with grade 3 & 4 Hyperglycaemia,"[2]; 800 mg b.i.d, 12 subjects",1
same,No. with grade 3 & 4 Hypokalemia,"[2]; 800 mg b.i.d, 12 subjects",3
same,No. with grade 3 & 4 Hyponatraemia,"[2]; 800 mg b.i.d, 12 subjects",1
same,No. with grade 3 & 4 Hypotension,"[2]; 800 mg b.i.d, 12 subjects",1
same,No. with grade 3 & 4 Lymphopenia,"[2]; 800 mg b.i.d, 12 subjects",1
same,No. with grade 3 & 4 Rash,"[2]; 800 mg b.i.d, 12 subjects",1
same,No. with grade 3 & 4 adverse events,"[2]; 800 mg b.i.d, 12 subjects",7
same,No. with grade 3 & 4 γ GT increase,"[2]; 800 mg b.i.d, 12 subjects",3
same,Patients with hypokalaemia (<3.0 mmol l^−1),[2]; 800 mg b.i.d.,five of 12
same,Patients with seliciclib-induced hyperglycaemia,[2]; 800 mg b.i.d.,five and five of 12
same,Dose-limiting toxicities,"[2]; 800 mg b.i.d. p.o., 7 days every 21 days","grade 3 fatigue, grade 3 skin rash, grade 3 hyponatraemia and grade 4 hypokalaemia"
same,Patients with derangements in liver biochemistry (γGT and ALP elevations),[2]; 800 mg b.i.d.,10 out of 12
same,Patients with grade 1 hypokalaemia,"[2]; 800 mg b.i.d., 12 patients",two
same,Patients with grade 3 hypokalaemia,"[2]; 800 mg b.i.d., 12 patients",two
same,Patients with grade 4 hypokalaemia,"[2]; 800 mg b.i.d., 12 patients",one
same,Patients who experienced nausea,"[2]; 800 mg dose level, not dose-limiting",11 of the 12
same,Overall haematological toxicity,[2]; all dose levels,mild
same,Patients with seliciclib-related DLTs,[2]; final six patients treated at 800 mg,Four of the final six
same,Serum potassium (lowest level),"[2]; one patient, 800 mg b.i.d., day 7 of course 1",2.2 mmol/L
same,Blood pressure (hypotension),[2]; [6],82/52
same,Serum potassium nadir,[2]; [6],2.5 mmol/L
same,Serum sodium (hyponatraemia),[2]; [6],127 mmol/L
same,Creatinine,"[2]; same patient, 800 mg b.i.d., course 2, normal range <110",130 µmol/L
same,concentration range achieving clinically relevant biological effects,[3],7.9–30.2 μM
same,Inhibition of Cdk8,Cdk8,only a weak inhibitor
same,Inhibition of Cdk6,Cdk6,only a weak inhibitor
same,Effect on growth of a human tumour xenograft,human tumour xenograft,significant growth delay
same,Patients with stable disease after course 2,malignant solid tumour; 100 mg b.i.d.,Two of three
same,Patients with stable disease after course 2,malignant solid tumour; 200 mg b.i.d.,two of six
same,Patients with stable disease after course 2,malignant solid tumour; 800 mg b.i.d.,three of 12
same,Objective tumour responses,malignant solid tumour; all dose levels,No objective tumour responses
same,Patients with disease stabilisation,"malignant solid tumour; all dose levels, 21 treated patients",eight
same,Duration of disease stabilisation,"malignant solid tumour; one patient with ovarian cancer, six courses",18 weeks
same,peak seliciclib concentration,[4],approximately 100 μM
same,Bound to plasma proteins,plasma proteins,90%
same,Renal perfusion by MAG3 perfusion indices,renal perfusion,reduction in renal perfusion bilaterally
same,Inhibition of Cdk4,Cdk4,only a weak inhibitor
same,Alterations of retinoblastoma phosphorylation and cyclin D1 levels,[5],not demonstrated; also recorded: No reliably detectable alterations

# Source: PMC2360206 (British Journal of Cancer, 2006)
